{"source": "patent US10640527B2", "about": "“Mesitylene-cored amphiphiles and uses thereof” (Industry-University Cooperation Foundation Hanyang …, priority 2016, dated 2020)", "key": {"[1]": {"molecular_target": "T1, human β2-adrenergic receptor (β2AR) (Homo sapiens, UniProt P07550)", "T1 sequence (P07550 whole entry)": "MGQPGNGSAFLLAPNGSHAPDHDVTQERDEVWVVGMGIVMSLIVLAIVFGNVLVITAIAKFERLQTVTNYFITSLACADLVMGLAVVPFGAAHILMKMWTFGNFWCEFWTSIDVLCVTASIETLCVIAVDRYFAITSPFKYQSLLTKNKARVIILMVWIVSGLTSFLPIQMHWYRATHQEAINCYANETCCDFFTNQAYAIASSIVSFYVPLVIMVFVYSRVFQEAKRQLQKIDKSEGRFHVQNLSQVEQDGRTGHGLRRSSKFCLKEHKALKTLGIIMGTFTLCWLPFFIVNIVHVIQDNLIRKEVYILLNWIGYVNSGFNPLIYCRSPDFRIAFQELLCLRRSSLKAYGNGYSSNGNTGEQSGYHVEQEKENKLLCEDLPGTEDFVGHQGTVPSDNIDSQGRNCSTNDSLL", "assay": "Size exclusion chromatography (SEC) of β2AR solubilized in amphiphile", "conditions": "amphiphile-free running buffer", "experimental": "A size exclusion chromatography (SEC) experiment was conducted to determine the β2AR crystallization effect and β2AR stability preservation effect by MGA-C13 or DDM.\nSpecifically, β2AR purified by 0.1% DDM was mixed with a DDM or MGA-C13 buffer (20 mM HEPES pH 7.5, 100 mM NaCl, 0.2% of each amphiphile) and incubated for 30 minutes. The sample was applied to a Superdex-200 10/300 GL column (GE Healthcare Life Sciences) at a rate of 0.5 ml/min, fluorescence was recorded at 345 nm, and an […] wavelength was 295 nm. A running buffer contained 20 mM HEPES (pH 7.5) and 100 mM NaCl, and contained each amphiphile (DDM or MGA-C13) or not."}, "[2]": {"molecular_target": "T2, melibiose permease (MelBSt) (Salmonella typhimurium, UniProt P30878)", "T2 construct": "made in house; host or cells: DW2 cells (ΔmelB and ΔlacZY), Salmonella typhimurium DW2", "T2 sequence (P30878 whole entry)": "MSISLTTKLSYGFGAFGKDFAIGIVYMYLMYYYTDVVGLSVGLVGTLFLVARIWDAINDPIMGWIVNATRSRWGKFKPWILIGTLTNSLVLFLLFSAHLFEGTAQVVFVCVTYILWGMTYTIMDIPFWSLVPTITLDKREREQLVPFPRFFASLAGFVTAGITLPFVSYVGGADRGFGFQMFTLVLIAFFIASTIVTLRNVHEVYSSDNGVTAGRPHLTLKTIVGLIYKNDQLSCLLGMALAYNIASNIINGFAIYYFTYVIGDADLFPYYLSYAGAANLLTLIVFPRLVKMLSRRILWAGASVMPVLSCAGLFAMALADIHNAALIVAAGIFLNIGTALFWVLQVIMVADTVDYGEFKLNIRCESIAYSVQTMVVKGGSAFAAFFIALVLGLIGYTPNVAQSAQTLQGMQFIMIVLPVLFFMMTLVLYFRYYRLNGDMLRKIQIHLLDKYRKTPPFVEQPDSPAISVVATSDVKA", "assay": "MelBSt extraction from membranes and thermal stability, SDS-PAGE and Western blotting", "assay_type": "biochemical", "conditions": "1.5 wt %, 90 minutes", "experimental": "An experiment for measuring the structural stability of Salmonella typhimurium melibiose permease (MelBSt) according to MGAs in an aqueous solution was performed. After MelBSt proteins were extracted from a membrane using MGAs or DDM, the amount and structure of extracted proteins were analyzed by SDS-PAGE and western blotting. The concentration of used amphiphiles was 1.5 wt %, and proteins were extracted at four different temperatures of 0, 45, 55 and 65° C. to evaluate both the protein extraction efficiency and stabilizing ability of a compound. A membrane sample which had not been treated with MGAs or DDM was used as a control group.\nSpecifically, MelBSt stability solubilized in DDM or MGAs was evaluated according to a method described in 2010 in a research article (P. S. Chae et al., Nat. Methods 2010, 7, 1003-1008.) by the inventors of the present invention. Proteins (MelBSt) were produced using plasmid pK95ΔAHB/WT MelBSt/CH10 encoding the wild-type MelB with a 6-His tag at the C-terminus and Salmonella typhimurium DW2 cells (ΔmelB and ΔlacZY). Cell growth and membrane preparation was performed according to a method described in a research article (Nat. Commun. 2014, 5, 3009) by A. S. Ethayathulla, et al. A protein assay was carried out using a Micro BCA kit (Thermo Scientific, Rockford, Ill.). In order to measure protein solubilization, a membrane sample (final protein concentration was 10 mg/mL) containing MelBSt was incubated with a solubilization buffer (20 mM sodium phosphate, pH 7.5, 200 mM NaCl, 10% glycerol and 20 mM melibiose) and 1.5% (w/v) DDM or MGA (MGA-C10, MGA-C11, MGA-C12, MGA-C13, MGA-C14 or MGA-C15) at four different temperatures of 0, 45, 55 and 65° C. for 90 minutes. After ultracentrifugation at 355,590 g in a Beckman Optima™ MAX Ultracentrifuge using a TLA-100 rotor for 45 min at 4° C., 20 μg of a protein was separated by SDS-16% PAGE and immunoblotted with a Penta-His-HRP antibody (Qiagen, Germantown, Md.). MelBSt was measured by an ImageQuant LAS 4000 Biomolecular Imager (GE Healthcare Life Sciences) using a SuperSignal West Pico chemiluminescent substrate."}, "[3]": {"molecular_target": "T1, human β2-adrenergic receptor (β2AR)", "assay": "β2AR stability, [3H]-dihydroalprenolol radioligand binding", "assay_type": "biochemical", "conditions": "after three days of incubation at room temperature, CMC+0.2 wt %", "experimental": "The activity of a receptor (β2AR) purified by DDM or MGAs (MGA-C12, MGA-C13 and MGA-C14) was measured by binding of [^3H]-dihydroalprenolol ([^3H]-DHA).\nSpecifically, the following method was used in a radioligand binding experiment. β2AR was purified by 0.1% DDM. The DDM-purified β2AR was diluted with a buffer solution containing each amphiphile (DDM or an MGA) such that the final concentration of the amphiphile was CMC+0.2 wt %. β2AR dissolved in each amphiphile was stored at room temperature for three days, and incubated at room temperature for 30 minutes using 10 nM-radioactive [^3H]-dihydroalprenolol (DHA) to measure ligand binding thereof at regular intervals. The mixture was loaded into a G-50 column, and passing liquid was collected using a binding buffer (20 mM HEPES pH 7.5, 100 mM NaCl supplemented with 0.5 mg/ml BSA) and 15 ml of a scintillation fluid was added thereto. Receptor-coupled [^3H]-DHA was measured by a scintillation counter (Beckman). Non-specific binding of [^3H]-DHA was measured by adding 1 μM of alprenolol (Sigma) in the same reaction. Binding of [^3H]-DHA was measured by column graphs."}, "[4]": {"system": "leucine transporter (LeuT)", "assay": "LeuT long-term stability, [3H]-Leu binding by scintillation proximity assay (SPA)", "assay_type": "biochemical, Aquifex aeolicus", "conditions": "after 12 days of incubation at room temperature", "experimental": "An experiment for measuring the structural stability of LeuT proteins according to MGAs (MGA-C11, MGA-C12, MGA-C13, MGA-C14 and MGA-C15) was performed. Each amphiphile was used at a concentration of (a) CMC+0.04 wt % or (b) CMC+0.2 wt %, a ligand-binding activity of LeuT was measured by scintillation proximity assay (SPA) using [^3H]-Leucine. The measurement was performed at regular intervals at room temperature during 12 days of incubation.\nSpecifically, a thermophilic bacteria Aquifex aeolicus-derived wild type LeuT was purified using a previously described method (Nature, G. Deckert et al., 1998, 392, 353-358). To sum up, the LeuT was expressed in E. coli C41 (DE3) cultured in a lysogeny broth medium supplemented with 0.1 mg/ml ampicillin. Expression of proteins was induced by adding isopropyl β-D-thiogalactopyranoside to a final concentration of 0.1 mM.\nA cell membrane was separated from a crushed cell (Constant Systems Homogenizers, Kennesaw, Ga.), and solubilized in 1% (w/v) n-dodecyl-β-D-maltopyranoside (DDM; Affymetrix, Santa Clara, Calif.). After solubilization, LeuT was fixed in a Ni^2+-NTA resin (Life Technologies, Denmark), and eluted in 20 mM Tris-HCl (pH 7.5), 199 mM KCl, 1 mM NaCl, 0.05% (w/v) DDM and 300 mM imidazole. Thereafter, purified LeuT (about 1.5 mg/ml) was diluted tenfold with a buffer supplemented with MGA (MGA-C11, MGA-C12, MGA-C13, MGA-C14 or MGA-C15) or DDM to the final concentration of CMC+0.04% (w/v) or CMC+0.2% (w/v) while excluding DDM and imidazole from the above-described buffers. Protein samples were stored at room temperature for 12 days, and protein activity was determined by measuring [^3H]-Leu binding by SPA at a specified time. SPA was carried out using 450 mM NaCl and buffers containing each MGA, and a SPA reaction was performed in the presence of 20 nM [^3H]-Leu and 1.25 mg/ml copper chelate (His-Tag) YSi beads (Perkin Elmer, Denmark). [^3H]-Leu binding was measured using a MicroBeta liquid scintillation counter (Perkin Elmer)."}, "[5]": {"assay": "Critical micelle concentration by fluorophore encapsulation using diphenylhexatriene (DPH)", "assay_type": "physicochemical", "conditions": "aqueous solution", "experimental": "A method of measuring a CMC is not particularly limited, and those methods widely known in the related field may be used. For example, a CMC may be measured by a fluorophore encapsulation method using diphenylhexatriene (DPH).\n(§1) Specifically, a CMC was measured by a fluorophorescent encapsulation method using diphenylhexatriene (DPH) and an Rh of a micelle formed by each formulation (1.0 wt %) was measured using a dynamic light scattering (DLS) experiment."}, "[6]": {"assay": "Hydrodynamic radius / size distribution of micelles by dynamic light scattering (DLS)", "assay_type": "physicochemical", "conditions": "1.0 wt % amphiphile", "experimental": "A method of measuring a radius of the micelle is not particularly limited, and those methods widely known in the related field may be used, for example, a dynamic light scattering (DLS) experiment may be used for measurement.\nas §1"}}, "note": "Values joined by “and” are separate entries in the source; they are usually repeats but may differ in a detail not shown here. Equal entries are not always repeated.", "data": [{"compound": "CCCCCCCCCCCCO[C@@H]1O[C@H](CO)[C@@H](O[C@H]2O[C@H](CO)[C@@H](O)[C@H](O)[C@H]2O)[C@H](O)[C@H]1O", "note": "[DDM, n-dodecyl-β-D-maltopyranoside, reference compound]", "values": [{"measurement": "SEC profile of solubilized β2AR", "setting": "[1]", "result": "largely decreased monodispersed peak intensity (˜13 mL) and a new broad aggregate peak (˜10 mL)"}, {"measurement": "MelBSt protein extraction efficiency", "setting": "[2]; 0° C. and 45° C.", "result": "high protein extraction efficiency"}, {"measurement": "MelBSt protein extracted", "setting": "[2]; 55° C. or more", "result": "almost no protein was observed"}, {"measurement": "β2AR receptor (ligand binding) activity retained", "setting": "[3]", "result": "~15", "unit": "%"}, {"measurement": "LeuT ligand-binding activity retained, % of initial activity", "setting": "[4]", "result": "~40", "unit": "%"}, {"measurement": "CMC", "setting": "[5]", "result": "~170", "unit": "µM"}, {"measurement": "CMC (wt %)", "setting": "[5]", "result": "~0.0087", "unit": "wt %"}, {"measurement": "Rh (nm), hydrodynamic radius of micelle", "setting": "[6]", "result": "3.4 nm and 3.4 ± 0.02 nm"}]}]}
